This note sets out measurements from US20090137572A1, “2-substituted-4-heteroaryl-pyrimidines useful for the treatment of proliferative disorders” (priority 2004, published 2009).

One may read the remaining activity as the signal under treatment as a percentage of the control signal.

What all share (assay type): biochemical
One experiment has as its target CDK9/cyclin T1 (Homo sapiens, UniProt P50750). Description: CDK 9 assay (CTD peptide substrate). Particulars: read-out: Kinase Inhibition pIC50 CDK9-cyclin T1 (converted). A digest of the protocol: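 32P transfer from 100 μM ATP (trace [γ-32P]ATP) to a biotinyl CTD (YSPTSPS)4 peptide was measured after 45 min at 30 °C in pH 7.2 MOPS buffer, 15 mM MgCl2, using recombinant human CDK7/cyclin H or CDK9/cyclin T1. Signal read by filter binding and scintillation counting.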

Experiment [1] has as its target T1, protein kinases (panel of Table 4) (Homo sapiens, UniProt Q16539).
T1 construct: other: kinase SAPK2a; ATP 100 μM
Description: Kinase selectivity profile, kinase inhibition IC50 (Table 4), ATP 100 μM. Particulars: kinase SAPK2a.

A further experiment concerns the target MKK1 (Homo sapiens, UniProt Q02750). Description: Kinase selectivity profile, MKK1. Particulars: 5 μM test compound, compared to control; ATP 5 μM. The method, then:
(§1) The kinase selectivity profiles of selected example compounds were determined, essentially as described (Bain, J.; McLauchlan, H.; Elliott, M.; Cohen, P. Biochemical Journal, 2003, 371, 199.); the results are shown in Tables 3 & 4. For the assays shown in Table 3, the kinases were assayed at the following ATP concentrations: SAPK4, PKBΔph, GSK3b, SAPK3, CK2, MKK1, PIM2, IKKB, ERK8, and PRK2 at 5 μM; JNK, PRAK, ROCK-II, SAPK2b, CDK2, CHK1, MSK1, CSK, P70S6K, PKA, CK1, MAPKAP-K2, SGK, PKCa, PDK1, NEK 7, and MAPKAP-K3 at 20 μM; SAPK2a, LCK, AMPK, MAPK2, DYRK1a, MAPKAP-K1a, NEK-6, NEK2a, PBK, CAMK-1, SRPK-1, JNK3, MNK2, RSK2, MNK1, PKBB, and SmMLCK at 50 μM. For the assays in Table 4 the ATP concentration was 100 μM throughout.

For another experiment, the target named is SAPK2a/p38 (Homo sapiens, UniProt Q16539). In words: Kinase selectivity profile, SAPK2a/p38. Particulars: 5 μM test compound, compared to control; ATP 50 μM. The method, then:
as §1

The next experiment addresses MSK1 (Homo sapiens, UniProt O75582). Description: Kinase selectivity profile, MSK1. Particulars: 5 μM test compound, compared to control; ATP 20 μM. The method, then:
as §1

The target in a further experiment is PRAK (Homo sapiens, UniProt Q8IW41). In words: Kinase selectivity profile, PRAK. Particulars: 5 μM test compound, compared to control; ATP 20 μM. Here is the method:
as §1

The subject of the next experiment is AMPK. In words: Kinase selectivity profile, AMPK. Particulars: 5 μM test compound, compared to control; ATP 50 μM. Here is the method: as §1
The next experiment addresses CSK (Homo sapiens, UniProt P41240). In words: Kinase selectivity profile, CSK. Particulars: 5 μM test compound, compared to control; ATP 20 μM. The method, then: as §1
The target of the next experiment is DYRK1a (Homo sapiens, UniProt Q13627). Description: Kinase selectivity profile, DYRK1a. Particulars: 5 μM test compound, compared to control; ATP 50 μM. The method, then:
as §1

The next experiment concerns the target NEK2a (Homo sapiens, UniProt P51955). Description: Kinase selectivity profile, NEK2a. Particulars: 5 μM test compound, compared to control; ATP 50 μM. The method, then: as §1
A further experiment deals with MAPKAP-K1b (Homo sapiens, UniProt P51812). Description: Kinase selectivity profile, MAPKAP-K1b. Particulars: 5 μM test compound, compared to control. Here is the method: as §1
A further experiment concerns the target CAMK-1 (Homo sapiens, UniProt Q14012). Description: Kinase selectivity profile, CAMK-1. Particulars: 5 μM test compound, compared to control; ATP 50 μM. Here is the method:
as §1

In another experiment the target is NEK7 (Homo sapiens, UniProt Q8TDX7). In words: Kinase selectivity profile, NEK7. Particulars: 5 μM test compound, compared to control; ATP 20 μM. The method, then:
as §1

The next experiment deals with SRPK1 (Homo sapiens, UniProt Q96SB4). Description: Kinase selectivity profile, SRPK1. Particulars: 5 μM test compound, compared to control; ATP 50 μM. The method, then:
as §1

In another experiment the target is Aurora B (Homo sapiens, UniProt Q96GD4). In words: Kinase selectivity profile, Aurora B. Particulars: 5 μM test compound, compared to control. Here is the method:
as §1

Chain of CDK9/cyclin T1 (P50750 whole entry): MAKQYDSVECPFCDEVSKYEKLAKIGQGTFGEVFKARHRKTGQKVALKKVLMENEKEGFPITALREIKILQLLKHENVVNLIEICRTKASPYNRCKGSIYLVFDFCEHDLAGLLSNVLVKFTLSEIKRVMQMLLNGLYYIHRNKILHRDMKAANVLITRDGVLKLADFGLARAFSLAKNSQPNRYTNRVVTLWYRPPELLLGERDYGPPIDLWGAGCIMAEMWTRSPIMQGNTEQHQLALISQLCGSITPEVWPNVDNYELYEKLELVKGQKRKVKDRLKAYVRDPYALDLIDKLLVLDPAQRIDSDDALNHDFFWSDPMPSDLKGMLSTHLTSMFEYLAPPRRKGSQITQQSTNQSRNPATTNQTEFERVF
Chain of CDK9/cyclin T1 (O60563 whole entry partner): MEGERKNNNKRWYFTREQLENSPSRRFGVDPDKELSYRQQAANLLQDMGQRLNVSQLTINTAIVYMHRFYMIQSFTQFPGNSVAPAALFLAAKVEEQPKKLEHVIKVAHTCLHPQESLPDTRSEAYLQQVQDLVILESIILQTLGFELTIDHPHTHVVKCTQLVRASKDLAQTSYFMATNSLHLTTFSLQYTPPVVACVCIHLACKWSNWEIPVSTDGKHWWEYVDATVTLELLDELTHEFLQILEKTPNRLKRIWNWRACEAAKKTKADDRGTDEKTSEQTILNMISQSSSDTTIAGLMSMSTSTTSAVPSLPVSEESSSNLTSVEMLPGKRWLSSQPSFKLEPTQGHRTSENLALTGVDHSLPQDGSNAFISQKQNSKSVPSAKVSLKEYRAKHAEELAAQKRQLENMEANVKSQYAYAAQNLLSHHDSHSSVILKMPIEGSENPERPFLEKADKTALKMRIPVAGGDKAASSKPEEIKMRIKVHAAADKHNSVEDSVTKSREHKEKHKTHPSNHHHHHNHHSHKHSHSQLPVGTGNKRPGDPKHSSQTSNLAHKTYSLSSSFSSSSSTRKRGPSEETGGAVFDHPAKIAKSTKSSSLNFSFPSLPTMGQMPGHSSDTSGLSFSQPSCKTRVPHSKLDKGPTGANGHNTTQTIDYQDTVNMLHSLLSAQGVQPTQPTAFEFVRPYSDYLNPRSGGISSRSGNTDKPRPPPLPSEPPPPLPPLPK
T1 sequence (Q16539 whole entry): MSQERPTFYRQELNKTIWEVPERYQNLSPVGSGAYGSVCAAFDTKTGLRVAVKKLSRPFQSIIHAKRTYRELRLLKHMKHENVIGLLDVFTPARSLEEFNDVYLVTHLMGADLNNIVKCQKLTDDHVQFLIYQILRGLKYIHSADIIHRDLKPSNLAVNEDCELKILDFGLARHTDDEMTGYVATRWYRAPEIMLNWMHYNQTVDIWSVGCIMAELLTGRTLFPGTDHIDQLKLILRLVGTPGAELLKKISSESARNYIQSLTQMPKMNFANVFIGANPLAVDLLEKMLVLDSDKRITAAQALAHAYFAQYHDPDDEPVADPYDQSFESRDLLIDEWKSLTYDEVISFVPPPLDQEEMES
Chain of SAPK2a/p38 (Q16539 whole entry): as above
Chain of MSK1 (O75582 whole entry, species assumed): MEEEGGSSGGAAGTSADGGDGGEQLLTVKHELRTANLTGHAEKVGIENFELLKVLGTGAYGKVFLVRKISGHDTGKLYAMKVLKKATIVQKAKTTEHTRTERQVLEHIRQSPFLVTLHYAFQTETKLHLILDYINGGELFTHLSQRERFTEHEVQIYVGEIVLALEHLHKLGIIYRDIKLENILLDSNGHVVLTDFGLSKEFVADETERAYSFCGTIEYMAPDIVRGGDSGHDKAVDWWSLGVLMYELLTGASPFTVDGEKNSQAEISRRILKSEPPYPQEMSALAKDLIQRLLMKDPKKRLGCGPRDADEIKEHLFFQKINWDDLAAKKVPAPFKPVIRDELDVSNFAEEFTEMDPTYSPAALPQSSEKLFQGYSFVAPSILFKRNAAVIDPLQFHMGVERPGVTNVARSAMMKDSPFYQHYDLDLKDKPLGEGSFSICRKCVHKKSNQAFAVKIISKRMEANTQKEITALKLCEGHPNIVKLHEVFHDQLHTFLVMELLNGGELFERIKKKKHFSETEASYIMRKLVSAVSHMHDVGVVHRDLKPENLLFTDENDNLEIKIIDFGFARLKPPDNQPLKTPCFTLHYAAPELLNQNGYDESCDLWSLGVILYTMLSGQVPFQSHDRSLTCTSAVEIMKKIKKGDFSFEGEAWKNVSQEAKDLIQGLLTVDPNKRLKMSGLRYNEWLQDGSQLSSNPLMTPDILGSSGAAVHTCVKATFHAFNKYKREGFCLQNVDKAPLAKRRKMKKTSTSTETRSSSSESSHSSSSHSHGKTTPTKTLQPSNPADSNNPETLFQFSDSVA
Chain of PRAK (Q8IW41 whole entry, species assumed): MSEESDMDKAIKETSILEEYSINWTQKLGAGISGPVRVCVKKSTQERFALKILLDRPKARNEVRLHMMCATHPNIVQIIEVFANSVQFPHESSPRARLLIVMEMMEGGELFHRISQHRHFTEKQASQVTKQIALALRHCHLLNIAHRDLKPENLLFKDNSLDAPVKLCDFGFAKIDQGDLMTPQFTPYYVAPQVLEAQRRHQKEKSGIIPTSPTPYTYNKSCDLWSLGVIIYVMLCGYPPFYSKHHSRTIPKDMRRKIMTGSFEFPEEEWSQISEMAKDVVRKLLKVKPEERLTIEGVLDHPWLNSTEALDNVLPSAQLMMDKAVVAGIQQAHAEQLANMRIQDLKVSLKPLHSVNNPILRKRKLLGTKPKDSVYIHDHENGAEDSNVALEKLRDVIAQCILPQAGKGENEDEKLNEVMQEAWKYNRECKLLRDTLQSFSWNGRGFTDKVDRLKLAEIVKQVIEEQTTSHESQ
Chain of Aurora B (Q96GD4 whole entry): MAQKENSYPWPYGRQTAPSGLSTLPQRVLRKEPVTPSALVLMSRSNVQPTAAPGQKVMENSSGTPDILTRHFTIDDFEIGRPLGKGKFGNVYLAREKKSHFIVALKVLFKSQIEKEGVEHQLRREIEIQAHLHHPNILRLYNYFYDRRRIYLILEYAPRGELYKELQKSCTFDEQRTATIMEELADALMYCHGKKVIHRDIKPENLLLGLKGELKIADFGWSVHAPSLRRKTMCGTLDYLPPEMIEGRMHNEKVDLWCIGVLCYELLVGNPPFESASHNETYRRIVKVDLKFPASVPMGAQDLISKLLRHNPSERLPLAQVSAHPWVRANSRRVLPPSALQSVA
Chain of NEK2a (P51955 whole entry, species assumed): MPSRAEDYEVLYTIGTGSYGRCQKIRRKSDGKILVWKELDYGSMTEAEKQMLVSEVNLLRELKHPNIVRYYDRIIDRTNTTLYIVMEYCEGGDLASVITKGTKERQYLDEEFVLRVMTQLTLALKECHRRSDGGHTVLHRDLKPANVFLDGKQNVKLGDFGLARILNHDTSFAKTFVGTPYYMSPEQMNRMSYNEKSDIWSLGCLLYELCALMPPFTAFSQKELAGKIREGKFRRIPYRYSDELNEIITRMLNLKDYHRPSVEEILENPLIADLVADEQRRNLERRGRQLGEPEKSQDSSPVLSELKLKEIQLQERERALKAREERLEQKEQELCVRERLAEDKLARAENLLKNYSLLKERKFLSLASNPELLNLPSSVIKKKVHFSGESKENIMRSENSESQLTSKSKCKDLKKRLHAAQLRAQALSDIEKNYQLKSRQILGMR
Chain of MAPKAP-K1b (P51812 whole entry, species assumed): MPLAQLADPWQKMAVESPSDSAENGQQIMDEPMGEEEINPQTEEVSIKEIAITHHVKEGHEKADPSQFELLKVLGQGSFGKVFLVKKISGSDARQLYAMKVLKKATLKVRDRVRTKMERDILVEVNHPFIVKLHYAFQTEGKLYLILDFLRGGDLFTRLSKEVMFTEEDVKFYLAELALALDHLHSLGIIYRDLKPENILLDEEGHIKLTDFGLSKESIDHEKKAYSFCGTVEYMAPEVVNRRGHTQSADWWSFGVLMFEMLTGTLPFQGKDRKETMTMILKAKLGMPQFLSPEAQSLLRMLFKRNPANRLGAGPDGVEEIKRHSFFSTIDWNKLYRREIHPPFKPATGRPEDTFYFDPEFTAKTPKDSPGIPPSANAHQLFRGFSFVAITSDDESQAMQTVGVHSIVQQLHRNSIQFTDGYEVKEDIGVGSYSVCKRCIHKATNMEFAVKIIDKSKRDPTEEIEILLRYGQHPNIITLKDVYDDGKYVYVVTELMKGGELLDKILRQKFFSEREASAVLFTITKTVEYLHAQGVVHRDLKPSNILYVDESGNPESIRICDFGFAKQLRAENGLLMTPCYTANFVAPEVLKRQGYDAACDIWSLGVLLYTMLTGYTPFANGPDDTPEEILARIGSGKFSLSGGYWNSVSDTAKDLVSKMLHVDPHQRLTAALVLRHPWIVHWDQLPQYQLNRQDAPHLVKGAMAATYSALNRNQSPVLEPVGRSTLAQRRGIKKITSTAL
Chain of SRPK1 (Q96SB4 whole entry, species assumed): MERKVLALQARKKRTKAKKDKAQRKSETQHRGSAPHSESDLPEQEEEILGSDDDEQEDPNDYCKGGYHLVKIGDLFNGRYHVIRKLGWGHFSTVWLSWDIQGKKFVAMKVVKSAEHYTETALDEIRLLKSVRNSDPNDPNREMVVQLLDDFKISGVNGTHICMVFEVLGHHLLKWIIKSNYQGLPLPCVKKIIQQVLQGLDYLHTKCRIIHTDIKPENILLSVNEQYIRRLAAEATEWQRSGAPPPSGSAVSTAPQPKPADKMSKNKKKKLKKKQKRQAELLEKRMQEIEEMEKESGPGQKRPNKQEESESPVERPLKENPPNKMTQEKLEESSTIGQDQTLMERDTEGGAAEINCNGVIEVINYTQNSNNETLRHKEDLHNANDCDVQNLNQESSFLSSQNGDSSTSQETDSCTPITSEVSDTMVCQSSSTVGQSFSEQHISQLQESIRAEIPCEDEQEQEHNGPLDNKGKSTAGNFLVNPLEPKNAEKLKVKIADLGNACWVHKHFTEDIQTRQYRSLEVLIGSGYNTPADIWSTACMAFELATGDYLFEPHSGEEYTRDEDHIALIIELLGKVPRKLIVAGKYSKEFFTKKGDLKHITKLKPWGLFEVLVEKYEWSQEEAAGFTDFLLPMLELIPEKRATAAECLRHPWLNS

`CNc1nc(C)c(-c2ccnc(Nc3cccc(S(N)(=O)=O)c3)n2)s1` [Compound 19, 3-[4-(4-Methyl-2-methylamino-thiazol-5-yl)-pyrimidin-2-ylamino]-benzenesulfonamide]: the results for the IC50 (at CDK9/cyclin T1; in experiment [1]) were 2.51 nM and 580 nM, respectively.
Regarding `Cc1ccc(Nc2nccc(-c3sc(N)nc3C)n2)cc1S(=O)(=O)N1CCOCC1` [Compound 38, [4-(2-Amino-4-methyl-thiazol-5-yl)-pyrimidin-2-yl]-[4-methyl-3-(morpholine-4-sulfonyl)-phenyl]-amine], the IC50 at CDK9/cyclin T1 was 25.1 nM.
On to `COCCNS(=O)(=O)c1cccc(Nc2nccc(-c3sc(N)nc3C)n2)c1` [Compound 55, 3-[4-(2-Amino-4-methyl-thiazol-5-yl)-pyrimidin-2-ylamino]-N-(2-methoxy-ethyl)-benzenesulfonamide], for which the IC50 on CDK9/cyclin T1 was 31.6 nM.
Turning to `Cc1nc(CS(=O)(=O)c2cccs2)sc1-c1ccnc(Nc2ccc(N3CCOCC3)cc2)n1` [Compound 138, {4-[4-Methyl-2-(thiophene-2-sulfonylmethyl)-thiazol-5-yl]-pyrimidin-2-yl}-(4-morpholin-4-yl-phenyl)-amine], the remaining activity at 5 µM on MKK1 is 21%; on SAPK2a/p38, 33%; at MSK1, 69%; on PRAK, 59%; on CSK, 30%; at DYRK1a, 27%. The remaining activity at 5 µM is 6% on NEK2a; 48% on MAPKAP-K1b; 91% on CAMK-1; 79% at NEK7; 110% on SRPK1; 5% at Aurora B. The “Remaining activity (%) AMPK” value in the experiment on AMPK was 28%.
In the case of `CCNc1nc(C)c(-c2ccnc(Nc3ccc(N4CCNCC4)cc3)n2)s1` [Compound 59, [4-(2-Ethylamino-4-methyl-thiazol-5-yl)-pyrimidin-2-yl]-(4-piperazin-1-yl-phenyl)-amine], the figures for the IC50 (on CDK9/cyclin T1; in experiment [1]) were 100 nM and 3300 nM, respectively. Also, the remaining activity at 5 µM at MKK1 came to 25%; on SAPK2a/p38, 39%; at MSK1 it was 45%; at PRAK, 44%; at CSK it was 14%; at DYRK1a, 4%. Moreover, the remaining activity at 5 µM on NEK2a amounted to 9%; at MAPKAP-K1b, 17%; at CAMK-1, 30%; at NEK7, 50%; at SRPK1, 88%; on Aurora B, 4%. The “Remaining activity (%) AMPK” value with AMPK is 2%.
On to `CNc1nc(C)c(-c2ccnc(Nc3cccc(S(C)(=O)=O)c3)n2)s1` [Compound 27, (3-Methanesulfonyl-phenyl)-[4-(4-methyl-2-methylamino-thiazol-5-yl)-pyrimidin-2-yl]-amine], for which the IC50 at CDK9/cyclin T1 was 1 nM.
